According to patent US20240262878A1, “PHOTOACTIVATABLE GASDERMIN PROTEINS” (THE BOARD OF TRUSTEES OF THE UNIVERSITY OF ILLINOIS, priority 2021, published 2024):
Entries after “also recorded” stand apart in the source; their conditions may differ.

Key:
GSDMD pores = target: T1, GSDMD pores (Homo sapiens, UniProt P57764); test: Free-standing planar lipid bilayer electrophysiology of reconstituted GSDMD pores; format: biochemical; settings: for time to observe GSDMD protein-membrane interaction, in words: lipid in bilayer compared to baseline or PIP2 bilayer; for single pore activity / pore dynamics profile: lipid in POPE/POPC bilayer
T1 construct: His-SUMO (N, cleaved yes); made in house; host or cells: E. coli BL21
T1 sequence (P57764 1-275 limits assumed): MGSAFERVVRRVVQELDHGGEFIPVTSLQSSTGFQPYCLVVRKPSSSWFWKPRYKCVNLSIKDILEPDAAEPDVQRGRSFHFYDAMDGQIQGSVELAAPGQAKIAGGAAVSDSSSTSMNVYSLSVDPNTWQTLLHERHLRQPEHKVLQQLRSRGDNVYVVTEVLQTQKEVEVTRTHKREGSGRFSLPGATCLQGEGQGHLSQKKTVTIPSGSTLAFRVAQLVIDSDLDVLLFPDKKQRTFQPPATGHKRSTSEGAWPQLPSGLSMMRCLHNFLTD
Experimental: Protein Purification. Plasmid encoding the full length human GSDMD with a N-terminal His-SUMO tag was transformed into E. coli BL21 strain. The cultures were grown at 37° C. until OD600 0.8, and protein expression was induced with 0.2 mM isopropyl β-D-1-thiogalactopyranoside (IPTG) overnight at 20° C. The cells were harvested by centrifugation and the pellet was resuspended in 20 mM Tris buffer, pH 7.5, 50 mM NaCl, 5 mM imidazole, 20 mM MgCl2, 10 mM KCl, 0.5 mM TCEP, 0.1 mM protease inhibitor, and DNase I. After resuspension, cells were disrupted by high-pressure and centrifuged at 30,000 g at 4° C. for 1 hour. The supernatant was incubated for 2 hours at room temperature with pre-equilibrated Ni-NTA affinity resin (Thermo Scientific) and then passed through a column for gravity flow purification. The column was washed with 20 column volumes of resuspension buffer, and the fusion protein was eluted with three column volumes of the same buffer with 250 mM imidazole. SUMO-tag cleavage was achieved by addition of ULP1 protease to the solution and subsequent dialysis overnight at 4° C. against 20 mM Tris buffer, pH 7.5, 50 mM NaCl, 0.5 mM TCEP. GSDMD was eluted from a second round of purification through pre-equilibrated Ni-NTA affinity resin. The protein was further purified by HI-TRAP® Q ion-exchange resin and a SUPERDEX® 75 gel filtration column (GE Healthcare) pre-equilibrated with 20 mM Tris buffer, pH 7.5, 50 mM NaCl, 0.5 mM TCEP. The purified protein was concentrated to 20 mg/ml and frozen at −80° C.
Free-Standing Lipid Bilayer Formation and Electrophysiology. For the lipid bilayer, a bilayer chamber with a polystyrene cuvette was used. In addition, the folding method, which is based on Langmuir-Blodgett film formation (Kroemer et al. (2009) Cell Death Differ. 16:3-11; Weavers et al. (2016) Cell 165:1658-1671) was employed. Monolayers that were spread in the air-water interface were faced at the chamber hole (Bergsbaken & Fink (2009) Nat. Rev. Microbiol. 7:99-109; Mulvihill et al. (2018) EMBO J. 37 (14): e98321). In brief, a shallow trough made of polystyrene was filled with recording solution, and the surface was separated into two parts by one of the cuvette walls. Bilayers were formed by monolayers of 1:3 1-palmitoyl-2-oleoylphosphatidylethanolamine (POPE)/1-palmitoyl-2-oleoylphosphatidylcholine (POPC) (Avanti-lipids) in pentane; where appropriate, phosphoinositides of the indicated headgroup were introduced with di-oleoyl (18:1) fatty acid chains at 10% relative concentration. A small amount of phospholipid, dispersed in pentane solution, was dropped on one of the water surfaces and as pentane evaporated, the lipid molecules remained at the air-water interface. The movements of the lipid molecules became less vigorous, and eventually the lipid molecules packed together to form a monolayer. For the formation of the planar lipid bilayer by the folding method, a monolayer was formed at the air-water interface in each compartment. Upon raising the recording solution level by adding more solution, the monolayer ran up on the cuvette surface and passed through the hole, where the two monolayers from both sides encountered each other and formed a bilayer. The membrane formed by this method has been referred to as a “solvent-free” membrane. The advantage of this method over other methods, like the painting method, is the capacity to form an asymmetrical membrane in which the lipid composition of either leaflet is arbitrarily defined (Kayagaki et al. (2015) Nature 526: 666-671). Once formed, the membrane retains this asymmetry for a long time because the flip-flop or exchange of the lipid molecules between both leaflets of the membrane is very slow.
For incorporation of the GSDMD into the lipid bilayer, 2 μM of the purified GSDMD protein was added to the cis side chamber along with 2 μM of caspase 1. The specific membrane capacitance of the membrane formed by the folding method was 0.6-0.8 μF/cm^2. […]

Hela cells = test: Optogenetic activation of PhoDer, membrane-targeted jRCaMP1b calcium flare imaging and fluctuation analysis; format: cell-based; settings: PhoDer mutants in live Hela cells vs PhoDer
Experimental: Cloning. Cloning and subcloning were performed using the DH5a strain of E. coli. All mammalian constructs were cloned into the pcDNA3.0 vector with a modified multiple cloning site. Plasmids were generated as follows. Gasdermin D gene was obtained from Addgene. A diffusible optogenetic GSDMD, referred to herein as “PhoDer” and set forth in SEQ ID NO: 33, was constructed according to the reported domains structure by ligating three fragments into the pcDNA3.0 vector in one reaction via Gibson Assembly (New England BioLabs). For each fragment, PCR was specifically designed to create appropriate complementation. The jRCaMP1b gene, encoding a sensitive red protein calcium indicator, was obtained from Addgene. Membrane targeted calcium indicator jRCaMP1b was constructed by ligating a PCR fragment of the calcium indicator into the restriction enzyme sites BamHI and EcoRI in a modified pcDNA3.0 vector carrying a 5′ fragment encoding the N-terminal Lyn kinase localization sequence.
Cell Culture. HeLa and RAW264.7 cells were maintained in Dulbecco's Modified Eagle Medium (DMEM) medium supplemented with 10% fetal bovine serum (FBS) and 1% penicillin and streptomycin. Cells were transfected at 50%-70% confluency using LIPOFECTAMINE® 2000 transfection reagent and incubated for 24 hours before imaging. Cells were never serum-starved. To examine endogenous inflammatory activation, RAW264.7 cells were treated with 100 ng/μL lipopolysaccharide (LPS, Invivogen) at the beginning of each experiment. Pretreatment to bias membrane composition by phosphatidylinositol 4,5-bisphosphate (PIP2) modifying enzymes was performed by incubating Hela cells in Hanks' Balanced Salt Solution (HBSS) buffer with inhibitors at 37° C. for 10 minutes to prior imaging at the following concentrations: for phosphoinositide 3-kinase (PI3K), cells were treated 10 μM wortmannin (Tocris); and for phospholipase C (PLC), cells were treated with 10 μM U73122 (Tocris). Cells were removed from the incubator and allowed to come to thermal equilibrium before being imaged in HBSS buffer at room temperature.
Fluorescence Imaging, Optogenetic Activation, and Post-Processing. All epifluorescence imaging was performed on a customized Nikon Ti2-E microscope equipped with individual control over excitation (EX) and emission (EM) filters, a fast LED light source (Lumencor) with fluid-cooled EMCCD (Andor), motorized stage, and examined under a 40× or 100× oil immersion objective under live focus tracking. For RFP, excitation (EX) and emission (EM) filter combinations (maxima/bandwidth in nm) are indicated. Cells were imaged at 12-15 second intervals. Emission intensities of individual cells were background-subtracted before normalization to zero time point, when optogenetic activation began. In the optical setup, optogenetic activation of PhoDer was performed using an EX filter at 440/20 nm for 20-30 ms across whole fields of view. This replicated the progression of endogenous activation of GSDMD observed in LPS-stimulated RAW264.7 cells. […] Where applicable, inhibitors were treated at the indicated concentration for 15 minutes prior to imaging.
Fluctuation Analysis and Quantification. To automate the objective isolation and quantitation of calcium flares, a post-processing algorithm was developed based on principles and normalization scheme detailed in work on photochromic stochastic optical fluctuation imaging (pcSOFI) (Dedecker et al. (2012) Proc. Natl. Acad. Sci. USA 109: 10909-10914). Briefly, fluctuation caused by the flares generate high autocorrelation signals in time-averaged series and yield high contrast at locales of the greatest ion flux. To truly reflect the local flux change, it is then normalized to remove dependence on the number of biosensors reporting at the given location using a scheme detailed previously (Mo et al. (2017) Nat. Methods 14 (4): 427-434). […]

[1] = lipid at 10% in POPE/POPC bilayer
[2] = lipid at 10% in POPE/POPC bilayer vs baseline

Row | Molecule | mean current of pores (GSDMD pores; [1]) [pA] | dwell time (open duration) of pores (GSDMD pores; [2]) | time to observe GSDMD protein-membrane interaction, in words (GSDMD pores) | single pore activity / pore dynamics profile (GSDMD pores) | pore opening/closing dynamics (automated flare quantification) (Hela cells) | further results
1 | phosphatidylinositol 4,5-bisphosphate [PIP2] | 20 | similarly distributed; also recorded: similar | significantly shortened |  |  | time to observe protein-membrane interaction (GSDMD pores; [1]): 2.4 ± 0.5 min; effect on open probability of pores (GSDMD pores; [2]): did not affect the open probability; increase in open/close events (GSDMD pores; [2]): 57 fold
2 | diacylglycerol [DAG] |  |  |  | no single pore activity was detected |  | 
3 | cardiolipin [cardiolipin (CL)] |  |  |  | supported a pore dynamics profile similar to that of PIP2 |  | 
4 | phosphatidylinositol triphosphate [PIP3] | 20.5 | significantly shorter-lived; also recorded: apparently short dwell time | remained as rapid as with PIP2 | kept GSDMD pores predominantly in the open state |  | time to observe GSDMD protein-membrane interaction, in words (GSDMD pores; listed as PI(3,4,5)P3 (PIP3)): significantly shortened
5 | m1: PhoDer mutant K51Q/R53Q/K55Q (SEQ ID NO:34) (protein) MGSAFERVVRRVVQELDHGGEFIPVTSLQSSTGFQPYCLVVRKPSSSWFWQPQYQCVNLSIKDILEPDAAEPDVQRGRSFHFYDAMDGQIQGSVELAAPGQAKIAGGAAVSDSSSTSMNVYSLSVDPNTWQTLLHERHLRQPEHKVLQQLRSRGDNVYVVTEVLQTQKEVEVTRTHKREGSGRFSLPGATCLQGEGQGHLSQKKTVTIPSGSTLAFRVAQLVIDSDLDVLLFPDKKQRTFQPPATGHKRSTSEGAWPQLPSGLSMMRCLHNGGGSVIPDYFKQSFPEGYSWERSMTYEDGGICIATNDITMEGDSFINKIHFKGTNFPPNGPVMQKRTVGWEASTEKMYERDGVLKGDVKMKLLLKGGGHYRCDYRTTYKVKQKPVKLPDYHFVDHRIEILSHDKDYNKVKLYEHAVARNSTDSMDELYKGGSGGMVSKGEETITSVIKPDMKNKLRMEGNVNGHAFVIEGEGSGKPFEGIQTIDLEVKEGAPLPFAYDILTTAFHYGNRVFTKYPRGGGVPAEGAFTEDFQGLRAEVETISKELELLDRELCQLLLEGLEGVLRDQLALRALEEALEQGQSLGPVEPLDGPAGAVLECLVLSSGMLVPELAIPVVYLLGALTMLSETQHKLLAEALESQTLLGPLELVGSLLEQSAPWQERSTMSLPPGLLGNSWGEGAPAWVLLDECGLELGEDTPHVCWEPQAQGRMCALYASLALLSGLSQEPH |  |  |  |  | significantly reduced pore opening/closing dynamics; also recorded: significant changes in pore activity | 
6 | m2: PhoDer mutant K51E/R53E/K55E (SEQ ID NO:35) (protein) MGSAFERVVRRVVQELDHGGEFIPVTSLQSSTGFQPYCLVVRKPSSSWFWEPEYECVNLSIKDILEPDAAEPDVQRGRSFHFYDAMDGQIQGSVELAAPGQAKIAGGAAVSDSSSTSMNVYSLSVDPNTWQTLLHERHLRQPEHKVLQQLRSRGDNVYVVTEVLQTQKEVEVTRTHKREGSGRFSLPGATCLQGEGQGHLSQKKTVTIPSGSTLAFRVAQLVIDSDLDVLLFPDKKQRTFQPPATGHKRSTSEGAWPQLPSGLSMMRCLHNGGGSVIPDYFKQSFPEGYSWERSMTYEDGGICIATNDITMEGDSFINKIHFKGTNFPPNGPVMQKRTVGWEASTEKMYERDGVLKGDVKMKLLLKGGGHYRCDYRTTYKVKQKPVKLPDYHFVDHRIEILSHDKDYNKVKLYEHAVARNSTDSMDELYKGGSGGMVSKGEETITSVIKPDMKNKLRMEGNVNGHAFVIEGEGSGKPFEGIQTIDLEVKEGAPLPFAYDILTTAFHYGNRVFTKYPRGGGVPAEGAFTEDFQGLRAEVETISKELELLDRELCQLLLEGLEGVLRDQLALRALEEALEQGQSLGPVEPLDGPAGAVLECLVLSSGMLVPELAIPVVYLLGALTMLSETQHKLLAEALESQTLLGPLELVGSLLEQSAPWQERSTMSLPPGLLGNSWGEGAPAWVLLDECGLELGEDTPHVCWEPQAQGRMCALYASLALLSGLSQEPH |  |  |  |  | significantly reduced pore opening/closing dynamics; also recorded: significant changes in pore activity | 
